The test system of one assay is J774.2 macrophages. Kind of assay: Macrophage toxicity by flow cytometry. The class given is cell-based. Conditions: J774.2 macrophages, 72 h of culture. As to the method:
Macrophage toxicity: this study used the experimental model designed by the group of inventors [I. Ramírez-Macías. et. al. J. Antimicrob. Chemother. 2011, 66(4): 813-819] wherein flow cytometry is used. Briefly, macrophages from line J774.2 (ECACC number 91051511, obtained from a BALB/c female […] tumour in 1968) were deposited in a steriling tube and centrifuged at 120 g for 5 minutes. The supernatant was discarded and the cells were resuspended in MEM + Glutamine medium with 20% SBF (fetal bovine serum). 1×10^4 cells per well were then deposited from a 24-well titration plate and incubated for 24-48 h at 37° C. in a humid atmosphere enriched with 5% CO2 to fix them. […] After 72 h of incubation, the samples were prepared for reading on a flow cytometer. Specifically, 100 µl of propidium iodide solution (100 µg/ml) was added to each well and incubated for 10 min at 28° C. in the dark. Subsequently, 100 µl/well of fluorescein diacetate (FDA) (Sigma Chemical Co) in solution (100 ng/mL) was added and incubation was repeated under the same conditions for 10 minutes. Cells were recovered by centrifugation at 400 g for 10 minutes and washing the precipitate with PBS. Finally, the results were analysed in a FACS Vantage flow cytometer (Becton Dickinson) taking into account that the cells with the plasma membrane intact emit green colour as the esterases act on the FDA, while the cells that have lost the integrity of the membrane and are not viable, emit in the range close to 580 nm by penetrating the propidium iodide by passive diffusion and specifically binding to the nucleic acids thereof. Thus, to calculate the percentage of viability, the number of dead cells compared to controls was taken into account.
For orientation: A flow cytometer gives signals particle by particle.

For assay [1], the system named is L. braziliensis amastigote forms. Description: In vitro activity against intracellular (amastigote) forms in macrophages. Particulars: for Selectivity Index (SI) L. brazilensis Amastigote forms: IC50 of macrophages / IC50 of parasite form; for IC50: Leishmania braziliensis, Macrophage, 72 h. The class given is cell-based, Leishmania braziliensis. From the text: (§1) Methodology: Cultures of three Leishmania species, representative of the species causing each of the clinical forms of the disease, were used for these studies. Specifically, strains MCAN/ES/2001/UCM-1 O of L.infantum, isolated and characterised in Madrid from an infected dog; MHOM/BR/1975/M2904 of L.braziliensis, isolated in Brazil in a human case, and LCR-L 133 LRC of L.donovani. isolated in Jerusalem, Israel from a case of kala-azar […] (WHO Technical Reports Series 949. Geneva: WHO. March. The cultures of parasites come from an own collection which was prepared from a biobank project (Biobank and Characterisation Unit of Strains and Species of Trypanosomatids, Responsible for Human, Animal and Plant Pathologies, Cgl-2008-03687-E/Bos.), and are available on request.
(§2) For the study of the in vitro effect on intracellular forms of Leishmania, the experimental model designed by the group of the present inventors was used [Sánchez-Moreno. M. et al. Med. Chem. 2012, 55, 9900-9913; Sánchez-Moreno. M. et al. J. Antimicrob. Chemother. 2012, 67, 387-397]. The macrophages were detached from the culture flask where they were attached by dry blows. To do this, it was incubated in cold for 5 minutes and after that the flask was hit with the palm of the hand until the cells were detached from the flask. Then, they were passed to a 25 ml capacity steriling conical bottom flask (Deltalab) to centrifuge them at 120 g for 5 minutes, removing the supernatant and were counted in Neubauer’s chamber. Cells were suspended in RPMI medium at a concentration of 1×10^4 cells/well, then cultured in 24-well plates into which a 12 mm round slide had previously been placed into each well. For adherence, the cells were left 24 h at 37° C. in 5% CO2. Subsequently, the cells were infected in vitro by placing Leishmania cells at the rate of 10 parasites/macrophage according to [Sánchez-Moreno. M et al. Med. Chem. 2011, 54, 970-979]. […] The products were allowed to act for 72 hours of incubation.
(§3) After that time, the crystals were removed and fixed with methanol on a slide and allowed to dry, after which DPX microscopy mounting medium (Panreac®) was added to it. Once the preparations had been mounted, they were dyed with Giemsa by diluting Azur-Eosin-Methylene Blue solution according to Giemsa DC (Code 251338) with Sorensen buffer (1:10 dilution). The preparations were covered and allowed to colour for 20 minutes, after which they were washed with distilled water and then allowed to drain and dry vertically. Finally, the amastigote forms were counted with the aim of immersion in a total of 200 cells.

Assay [2] deals with L. infantum promastigote forms. Kind of assay: In vitro activity against extracellular (promastigote) forms. Type of assay: cell-based, Leishmania infantum. Conditions: for Selectivity Index (SI) L. infantum Promastigote forms: IC50 of macrophages / IC50 of parasite form; for IC50: Leishmania infantum, 72 h.
Source text: as §1
(§4) The promastigote forms of the three species studied were cultured in vitro in sterility in single-phase MTL culture medium (Medium Trypanosomes Liquid) made from Hank’s Balanced Salts (Sigma-Aldrich, H6136) enriched with 10% (v/v) of Fetal Bovine Serum (SBF-1) inactivated at 56° C./ 30 minutes. The parasite inoculum to initiate the culture was 5 × 10^4 cells/ml in 5 ml medium in 25 cm^2 Falcon® plastic flasks and kept in an oven at 28° C. The cultures were performed routinely, achieving exponential growth of the flagellates until obtaining the cell mass necessary for the subsequent studies. Both promastigote forms and amastigote forms were used to conduct the assays.
(§5) The promastigote forms of the three Leishmania strains, cultured in the manner described above, were harvested in their exponential growth phase by centrifugation at 400 g for 10 min. The number of parasites was counted in a Neubauer Haemocytometer Counting Chamber and were inoculated in a 24-well plate at a concentration of 5 ×10^4 parasites/well.
(§6) The compounds to be assayed were dissolved in DMSO at a concentration of 0.01% (v/v), concentration at which this solvent is not toxic nor has any effect on the growth of parasites. The compounds were added to the culture medium at final concentrations of 100, 50, 25 and 12.5 µM. […] M. et al. Med. Chem. 2011. 54. 970-979].

The subject of assay [3] is L. braziliensis promastigote forms. Described as above. The class given is cell-based, Leishmania braziliensis. Conditions: for Selectivity Index (SI) L. brazilensis Promastigote forms: IC50 of macrophages / IC50 of parasite form; for IC50: Leishmania braziliensis, 72 h.
Source text: as §1, §4, §5, §6

Assay [4] concerns L. donovani amastigote forms. Kind of assay: In vitro activity against intracellular (amastigote) forms in macrophages. Type of assay: cell-based, Leishmania donovani. Particulars: for IC50: Leishmania donovani, Macrophage, 72 h.
Source text: as §1, §2, §3

For assay [5], the system named is L. infantum amastigote forms. The description is as above. Particulars: for Selectivity Index (SI) L. infantum Amastigote forms: IC50 of macrophages / IC50 of parasite form; for IC50: Leishmania infantum, Macrophage, 72 h. The class given is cell-based, Leishmania infantum.
Source text: as §1, §2, §3

Assay [6] concerns L. donovani promastigote forms. Description: In vitro activity against extracellular (promastigote) forms. Conditions: for Selectivity Index (SI) L. donvovani Promastigote forms: IC50 of macrophages / IC50 of parasite form; for IC50: Leishmania donovani, 72 h. The class given is cell-based, Leishmania donovani.
Source text: as §1, §4, §5, §6

SMILES strings stand for the structures.

Consider `CN(C)CCNCc1ccncc1` [Compound 6], for which the IC50 (usually the point on the concentration scale where inhibition reaches its midpoint) turned out to be 497 ± 21.5 µM in the assay with J774.2 macrophages; 29.7 ± 2.5 µM in assay [1]; 63.3 ± 1.5 µM in assay [2]; 52.5 ± 5.1 µM in assay [3]; 11.5 ± 1.3 µM in assay [4]; 23.6 ± 1.7 µM in assay [5]. The molecule also came in with an IC50 in assay [6] of 67.9 ± 5.3 µM. Further, the “Selectivity Index (SI) L. brazilensis Amastigote forms” value in assay [1] was 17. Further, the “Selectivity Index (SI) L. infantum Promastigote forms” value in assay [2] turned out to be 8. For the same molecule, the “Selectivity Index (SI) L. brazilensis Promastigote forms” value in assay [3] worked out at 9. In assay [5], the “Selectivity Index (SI) L. infantum Amastigote forms” value was found to be 21. Further, the “Selectivity Index (SI) L. donvovani Promastigote forms” value in assay [6] is recorded as 7.
As to `CNCCNCc1ccccn1` [Compound 1, 1-{2-pyridyl}-2,5-diazahexane], the IC50 was 13.7 ± 3.1 µM in the assay with J774.2 macrophages; 5.7 ± 0.3 µM in assay [1]; 0.6 ± 0.2 µM in assay [2]; 7.4 ± 0.6 µM in assay [3]; 8.9 ± 0.9 µM in assay [4]; 0.7 ± 0.1 µM in assay [5]. Further, it took 7 ± 0.5 µM to reach half-maximal inhibition in assay [6] (IC50). The “Selectivity Index (SI) L. brazilensis Amastigote forms” value in assay [1] is recorded as 2. Moreover, in assay [2], the “Selectivity Index (SI) L. infantum Promastigote forms” value was found to be 23. Moreover, in assay [3], the “Selectivity Index (SI) L. brazilensis Promastigote forms” value is reported as 2. Also, in assay [4] (IC50 of macrophages / IC50 of parasite form), the “Selectivity Index (SI) L. donvovani Amastigote forms” value is 1. Besides, the “Selectivity Index (SI) L. infantum Amastigote forms” value in assay [5] was 20. For the same molecule, the “Selectivity Index (SI) L. donvovani Promastigote forms” value in assay [6] is given as 2.

For the origin of these results see patent publication US20230346769A1, “USE OF SIMPLE ACYCLIC POLYAMINES FOR THE TREATMENT OF DISEASES CAUSED BY PARASITES OF THE GENUS LEISHMANIA” (Universidad De Granada, priority 2020, published 2023).
